Experimental data: article PMC9014295 (Frontiers in Pharmacology, 2022)
Entries after “also recorded” stand apart in the source; their conditions may differ.

Experiments:
[1] = tested on: zebrafish liver, transgenic Tg (fabp10: dsRed) zebrafish larvae; assay: Visual assessment of liver toxicity in zebrafish; assay type: in vivo, Danio rerio; details: exposure 3 dpf for 72 h, imaged at 6 dpf
Method: Wild-type AB strain zebrafish (Danio rerio) and transgenic Tg (fabp10: dsRed) zebrafish in this study were reared in a standard laboratory environment with a 14-h light/10-h dark cycle at 28 ± 1°C ([Chen et al., 2019]). As previously described ([Zhang et al., 2020]), 3 days post-fertilization (3 dpf), zebrafish larvae were exposed to compound solutions at different concentrations for 72 h. For visual assessment of liver toxicity in zebrafish, the tested zebrafish larvae were imaged by using a fluorescence microscope to observe the liver phenotype of zebrafish larvae, 20 larvae per group.

[2] = cited from earlier work; for Hepatotoxicity compared with erythromycin: ref Björnsson, 2017
human L02 cells [3] = assay: Cell viability of L02 cells by CCK-8 assay; assay type: cell-based; details: 24 h, different concentrations
Method: As previously described by [Zhang et al. (2020]), the human L02 cells were incubated with each macrolide compounds at different concentrations for 24 h. For cell viability, Cell Counting Kit-8 (CCK-8; Dojindo, CK04) was used by following the manufacturer’s protocol and the absorbance of each well was measured at 450 nm using a microplate reader. For cell toxicity, the level of lactate dehydrogenase (LDH) release was determined by LDH activity assay kits (Dojindo, CK12) according to the manufacturer’s specification, and the absorbance at 490 nm in each well was measured by a microplate reader.

[4] = tested on: c-fos gene expression in L02 cells; assay: qRT-PCR of c-fos gene expression in L02 cells; assay type: cell-based, human; details: β-actin reference
Method: (§1) As previously described by [Zhang et al. (2020]), the treated zebrafish larvae liver and human L02 cells were collected for the qRT-PCR analysis. Total RNA were extracted from L02 cells and the dissected liver of larvae by using TRIzol reagent (Sigma–Aldrich, Saint Louis, MO, United States) and synthesized cDNA using M-MLV reverse transcriptase (Promega, M1708). The reaction of qRT-PCR was performed by LightCycler480. The relative mRNA levels were calculated with β-actin as the reference gene using the comparative […] quantization method. The specific primers (5′-3′) for amplification in zebrafish are as follows: fosab (F: TTACCAGCCTTAACGCCGAC, R: TGGACCATCCACTGCAAGTC), β-actin (F: CCGTGACATCAAGGAGAAG, R: ATACCGCAAGATTCCATACC). The primer sequences (5′-3′) for qRT-PCR in L02 cells are as follows: c-fos (F: TACTACCACTCACCCGCAGA, R: GGCCTCCTGTCATGGTCTTC), β-actin (F: CACCATTGGCAATGAGCGGTTC, R: AGGTCTTTGCGGATGTCCACGT).

zebrafish fosab gene = assay: RNA-seq analysis of zebrafish larvae liver (fosab); assay type: in vivo, Danio rerio; details: 2 mM; for Fold change of fosab gene (RNA-seq): exposed 3 dpf, collected 6 dpf
Method: As previously described ([Han et al., 2018a]), the process of ribonucleic acid sequencing (RNA-seq) analysis was carried out by CapitalBio Corporation (Beijing, China). […] Cytoscape software was employed to map the drug–pathway network.

[5] = tested on: fosab gene expression in zebrafish liver; assay: qRT-PCR of fosab gene expression in zebrafish liver; assay type: in vivo, Danio rerio; details: β-actin reference
Method: as §1

human L02 cells [6] = assay: LDH release assay in L02 cells; assay type: cell-based; details: 24 h, different concentrations
Method: As previously described by [Zhang et al. (2020]), the human L02 cells were incubated with each macrolide compounds at different concentrations for 24 h. […] For cell toxicity, the level of lactate dehydrogenase (LDH) release was determined by LDH activity assay kits (Dojindo, CK12) according to the manufacturer’s specification, and the absorbance at 490 nm in each well was measured by a microplate reader.

CC[C@H]1OC(=O)[C@H](C)[C@@H](O[C@H]2C[C@@](C)(OC)[C@@H](O)[C@H](C)O2)[C@H](C)[C@@H](O[C@@H]2O[C@H](C)C[C@H](N(C)C)[C@H]2O)[C@](C)(O)C[C@@H](C)CN(C)[C@H](C)[C@@H](O)[C@]1(C)O [Azithromycin]
Liver phenotype of zebrafish larvae ([1]; 0.1 mM): no toxicity to zebrafish liver | Liver phenotype of zebrafish larvae ([1]; 0.5 mm): hepatomegaly | Liver phenotype of zebrafish larvae ([1]; 1 mm): blackened liver tissue | Hepatotoxicity compared with erythromycin [2]: higher hepatotoxicity than erythromycin

CC[C@H]1OC(=O)[C@H](C)[C@@H](O[C@H]2C[C@@](C)(OC)[C@@H](O)[C@H](C)O2)[C@H](C)[C@@H](O[C@@H]2O[C@H](C)C[C@H](N(C)C)[C@H]2O)[C@](C)(OC)C[C@@H](C)C(=O)[C@H](C)[C@@H](O)[C@]1(C)O [Clarithromycin]
Hepatotoxicity compared with erythromycin [2]: less hepatotoxicity than erythromycin

CCC1OC(=O)C(C)C(OC2CC(C)(OC)C(O)C(C)O2)C(C)C(OC2OC(C)CC(N(C)C=O)C2O)C(C)(O)CC(C)CN(C)C(C)C(O)C1(C)O (stereo not drawn) [Impurity F]
Liver phenotype of zebrafish larvae ([1]; 0.5 mm): nearly non-toxic to zebrafish liver | Liver phenotype of zebrafish larvae ([1]; 1 mm): nearly non-toxic to zebrafish liver | Cytotoxicity / cell viability (CCK-8) (human L02 cells [3]): less cytotoxicity | c-fos mRNA level (qRT-PCR) [4]: did not affect | Effect on fosab mRNA level (RNA-seq, GO enrichment analysis) (zebrafish fosab gene): no significant effect

CCC1OC(=O)C(C)C(OC2CC(C)(OC)C(O)C(C)O2)C(C)C(OC2OC(C)CC(NC)C2O)C(C)(O)CC(C)CN(C)C(C)C(O)C1(C)O (stereo not drawn) [Impurity I]
c-fos mRNA level (qRT-PCR) [4]: significantly upregulated | Effect on fosab mRNA level (RNA-seq, GO enrichment analysis) (zebrafish fosab gene): upregulated significantly | Fold change of fosab gene (RNA-seq) (zebrafish fosab gene): 2.14

CCC1OC(=O)C(C)C(O)C(C)C(OC2OC(C)CC(N(C)C)C2O)C(C)(O)CC(C)CN(C)C(C)C(O)C1(C)O (stereo not drawn) [Impurity J]
c-fos mRNA level (qRT-PCR) [4]: significantly upregulated | Effect on fosab mRNA level (RNA-seq, GO enrichment analysis) (zebrafish fosab gene): upregulated significantly | Fold change of fosab gene (RNA-seq) (zebrafish fosab gene): 2.92

CCC1OC(=O)C(C)C(OC2CC(C)(OC)C(O)C(C)O2)C(C)C(OC2OC(C)CC([N+](C)(C)[O-])C2O)C(C)(O)CC(C)CN(C)C(C)C(O)C1(C)O (stereo not drawn) [Impurity L]
Liver phenotype of zebrafish larvae ([1]; 0.1 mM): hepatomegaly and caused the liver lost transparency with a brown coloration | Liver phenotype of zebrafish larvae ([1]; 0.5 mm): liver tissue became black | c-fos mRNA level (qRT-PCR) [4]: significantly upregulated; also recorded: greatest effect | fosab mRNA level (qRT-PCR) [5]: greatest effect | Effect on fosab mRNA level (RNA-seq, GO enrichment analysis) (zebrafish fosab gene): upregulated significantly | Fold change of fosab gene (RNA-seq) (zebrafish fosab gene): 4.10

CCC1OC(=O)C(C)C(OC2CC(C)(OC)C(O)C(C)O2)C(C)C(OC2OC(C)CC(N(C)C)C2O)C2(C)CC(C)C(=NC(C)C(O)C1(C)O)O2 (stereo not drawn) [Impurity Q]
c-fos mRNA level (qRT-PCR) [4]: significantly upregulated | Effect on fosab mRNA level (RNA-seq, GO enrichment analysis) (zebrafish fosab gene): upregulated significantly | Fold change of fosab gene (RNA-seq) (zebrafish fosab gene): 3.07

CCC1OC(=O)C(C)C(OC2CC(C)(OC)C(O)C(C)O2)C(C)C(OC2OC(C)CC(N(C)C)C2O)C(C)(O)CC(C)C2=NC(C)C(O2)C1(C)O (stereo not drawn) [Impurity R]
c-fos mRNA level (qRT-PCR) [4]: significantly upregulated; also recorded: moderately lower than azithromycin | Effect on fosab mRNA level (RNA-seq, GO enrichment analysis) (zebrafish fosab gene): upregulated significantly | Fold change of fosab gene (RNA-seq) (zebrafish fosab gene): 2.18

CCC1OC(=O)C(C)C(OC2CC(C)(OC)C(O)C(C)O2)C(C)C(OC2OC(C)CC(N(C)C)C2O)C(C)(O)CC(C)C(=NO)C(C)C(O)C1(C)O (stereo not drawn) [Impurity S]
Cytotoxicity / cell viability (CCK-8) (human L02 cells [3]): less cytotoxicity | c-fos mRNA level (qRT-PCR) [4]: did not affect | Effect on fosab mRNA level (RNA-seq, GO enrichment analysis) (zebrafish fosab gene): no significant effect

CC[C@H]1OC(=O)[C@H](C)[C@@H](O[C@H]2C[C@@](C)(OC)[C@@H](O)[C@H](C)O2)[C@H](C)[C@@H](O[C@@H]2O[C@H](C)C[C@H](N(C)C)[C@H]2O)[C@](C)(O)C[C@@H](C)/C(=N\OCOCCOC)[C@H](C)[C@@H](O)[C@]1(C)O [Roxithromycin]
Hepatotoxicity compared with erythromycin [2]: less hepatotoxicity than erythromycin

CC[C@H]1OC(=O)[C@H](C)C(=O)[C@H](C)[C@@H](O[C@@H]2O[C@H](C)C[C@H](N(C)C)[C@H]2O)[C@](C)(OC)C[C@@H](C)C(=O)[C@H](C)[C@H]2N(CCCCn3cnc(-c4cccnc4)c3)C(=O)O[C@]12C [Telithromycin]
Liver phenotype of zebrafish larvae ([1]; 0.1 mM): hepatomegaly | Liver phenotype of zebrafish larvae ([1]; 0.5 mm): a dark coloration and amorphous liver | Cytotoxicity / cell viability (CCK-8) (human L02 cells [3]): higher cytotoxicity than azithromycin | Cytotoxicity (LDH release) (human L02 cells [6]): higher cytotoxicity than azithromycin | c-fos mRNA level (qRT-PCR) [4]: significantly elevated | fosab mRNA level (qRT-PCR) [5]: significantly elevated | Liver injury in clinical use ([2]; ref Author Anonymous, 2012): pulled from the market due to severe acute liver injury
